pIC50: −log10 of the molar value.
Tests used:
[1] = target: T1, Lysosomal acid glucosylceramidase (Homo sapiens) (UniProt P04062)
T1 sequence (whole entry): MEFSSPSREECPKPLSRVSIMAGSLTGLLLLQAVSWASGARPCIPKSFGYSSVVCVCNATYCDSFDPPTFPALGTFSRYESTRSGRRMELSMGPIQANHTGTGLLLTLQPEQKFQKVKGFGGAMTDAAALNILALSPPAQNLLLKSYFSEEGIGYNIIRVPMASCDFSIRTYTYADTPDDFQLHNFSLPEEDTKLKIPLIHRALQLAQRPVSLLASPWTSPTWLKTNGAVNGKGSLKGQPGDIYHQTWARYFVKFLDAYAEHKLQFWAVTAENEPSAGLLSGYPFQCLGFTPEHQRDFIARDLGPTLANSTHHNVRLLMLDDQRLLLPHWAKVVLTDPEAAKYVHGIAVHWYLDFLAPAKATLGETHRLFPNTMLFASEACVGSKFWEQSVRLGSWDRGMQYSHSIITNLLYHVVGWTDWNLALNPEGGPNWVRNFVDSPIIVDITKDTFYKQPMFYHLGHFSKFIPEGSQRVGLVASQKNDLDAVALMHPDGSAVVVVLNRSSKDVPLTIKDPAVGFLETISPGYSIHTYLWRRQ
Description: Binding affinity to synthetic recombinant wild type GCase enzyme velaglucerase alfa (unknown origin) assessed as thermal stabilization by measuring change in melting temperature at lower concentration at pH 5 for every 10 secs by Sypro Orange-dye based fluorescence thermal shift assay

[2] = target: T2, Lysosomal acid glucosylceramidase (Homo sapiens, UniProt P04062); assay: Inhibition of synthetic recombinant wild type GCase enzyme velaglucerase alfa (unknown origin) at pH 5.9 preincubated for 5 mins followed by addition of 4-Methylumbelliferyl beta-D-glucopyranoside as substrate measured after 30 mins by fluorescence analysis
T2 sequence (P04062 whole entry): T1 sequence (whole entry)

Compound | ΔTm [1] [°C] | pIC50 [2]
c1ccc2c(c1)CC(Nc1nc(-c3ccsc3)nc3ccccc13)C2 | 11 | 
C[C@H]1CC[C@H](Nc2nc(-c3cccnc3)nc3ccccc23)CC1 |  | 7.70
